The numbers were not newly measured in patent publication US20220125854A1, “PREPARATION AND EXTENDED CULTURE OF VASCULAR ENDOTHELIAL PROGENITOR CELL” (PUBLIC UNIVERSITY CORPORATION NAGOYA CITY UNIVERSITY, priority 2019, published 2022), which cites them from elsewhere.

Settings in all cases: report
For one data set, the system named is HUVECs.
The subject of data set [1] is ECs derived from ES cells.
For data set [2], the system named is ECs derived from iPS cells.

As for `Cc1c[nH]c(-c2cnc(NCCNc3ccc(C#N)cn3)nc2-c2ccc(Cl)cc2Cl)n1` [CHIR 99021], in the data set on HUVECs, the “proliferation potency of HUVECs” value is given as “enhances the proliferation potency”.
In the case of `NC(=O)c1ccc(-c2nc(-c3ccccn3)c(-c3ccc4c(c3)OCO4)[nH]2)cc1` [SB 43152], the “proliferation potency of ECs derived from ES cells” value in data set [1] is listed as “enhances the proliferation potency”.
With `C[C@@H](N)[C@H]1CC[C@H](C(=O)Nc2ccncc2)CC1` [Y-27632], the “proliferation potency of ECs derived from iPS cells” value in data set [2] is reported as “enhancing the proliferation potency”.
